Earlier results in PubChem BioAssay AID1259409 (Chemical Carcinogenesis Research Information System (CCRIS), 2018).

Tested on: rodent chemically induced tumor inhibition, incidence and multiplicity
Experiment: CCRIS tumor inhibitor studies
Conditions: Species: RAT, Strain/Sex: WISTAR/MALE, Promoter: NONE USED

SMILES | tumour outcome (control, treated, inhibition, significance) (Carcinogen: N-METHYL-N'-NITRO-N-NITROSOGUANIDINE, 70-25-7, Dose [Inhibitor]: 1 MG/KG BW IN DEPOT FORM 1/2 D BEGINNING 1 WK POST LAST CARCINOGEN DOSE FOR DURATION OF STUDY (STUDY DURATION: 52 WK), Route [Inhibitor]: SUBCUTANEOUS, Target Tissue: Type of Lesion: STOMACH: ADENOCARCINOMA, Dose [Carcinogen]: 50 UG/ML IN DRINKING WATER FOR 25 WK) | tumour outcome (control, treated, inhibition, significance) (Carcinogen: N-ETHYL-N-HYDROXYETHYLNITROSAMINE, 13147-25-6, Dose [Inhibitor]: 0, 10% IN DIET OF UNILATERALLY NEPHRECTOMIZED RATS BEGINNING POST CARCINOGEN TREATMENT AND CONTINUING FOR 18 WK (STUDY D, Route [Inhibitor]: ORAL, Target Tissue: Type of Lesion: KIDNEY: RENAL CELL TUMOR, Dose [Carcinogen]: 1000 PPM IN DIET FOR 2 WK)
CSCC[C@H](NC(=O)[C@@H](N)Cc1c[nH]c2ccccc12)C(=O)N[C@@H](CC(=O)O)C(=O)N[C@@H](Cc1ccccc1)C(N)=O | 12/19 (63%), 6/19 (32%), 49%, p<0.05 | –
O=P(O)(O)O | – | 5/20 (25%), 3/18 (17%), 32%, not calculated
